Holding throughout (assay): relative viability (nuclei count vs DMSO), 5 days (fraction); higher = more cells survive
Compound in the assay “ALW-II-49-7 + Crizotinib”: Cc1ccc(C(=O)Nc2cccc(C(F)(F)F)c2)cc1Nc1cncc(C(N)=O)c1 [ALW-II-49-7] + C[C@@H](Oc1cc(-c2cnn(C3CCNCC3)c2)cnc1N)c1c(Cl)ccc(F)c1Cl [Crizotinib] (partner 1 µM)
In short, it runs like this: (§1)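 After 5 days of treatment, lung cancer cells in 1536-well plates were fixed and stained in a single step (final 0.05% Triton X-100, 1% formaldehyde, 1 ug/ml Hoechst) and their nuclei counted on 4× images. Treatment had been applied by pin tool the day after seeding as one drug alone or as a fixed anchor-drug dose with five library-drug doses (not always all listed) in √10 steps. Relative viability is the nuclei count of treated wells divided by that of vehicle wells, and values are medians of duplicate plates.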

Compound in the assay “Dasatinib + Luminespib”: Cc1nc(Nc2ncc(C(=O)Nc3c(C)cccc3Cl)s2)cc(N2CCN(CCO)CC2)n1 [Dasatinib] + CCNC(=O)c1noc(-c2cc(C(C)C)c(O)cc2O)c1-c1ccc(CN2CCOCC2)cc1 [Luminespib] (partner 0.01 µM)
In short, it runs like this: as §1

Compound in the assay “Dasatinib + Alpelisib”: Cc1nc(Nc2ncc(C(=O)Nc3c(C)cccc3Cl)s2)cc(N2CCN(CCO)CC2)n1 [Dasatinib] + Cc1nc(NC(=O)N2CCC[C@H]2C(N)=O)sc1-c1ccnc(C(C)(C)C(F)(F)F)c1 [Alpelisib] (partner 2 µM)
In short, it runs like this:
as §1

Compound in the assay “Dasatinib + Phenformin”: Cc1nc(Nc2ncc(C(=O)Nc3c(C)cccc3Cl)s2)cc(N2CCN(CCO)CC2)n1 [Dasatinib] + N=C(N)NC(=N)NCCc1ccccc1 [Phenformin] (partner 250 µM)
In short, it runs like this:
as §1

In the case of NCI-H2023, the relative viability with ALW-II-49-7 + Crizotinib (first compound 0.08 µM) was 0.703; with ALW-II-49-7 + Crizotinib (first compound 0.253 µM), 0.714; with ALW-II-49-7 + Crizotinib (first compound 0.8 µM), 0.554; in the assay with ALW-II-49-7 + Crizotinib (first compound 2.53 µM) it was 0.622; with ALW-II-49-7 + Crizotinib (first compound 8 µM), 0.729; in the assay with Dasatinib + Luminespib (first compound 0.005 µM) it was 0.646. For the same cell line, the relative viability in the assay with Dasatinib + Luminespib (first compound 0.01581 µM) was 0.669; with Dasatinib + Luminespib (first compound 0.05 µM), 0.599; with Dasatinib + Luminespib (first compound 0.1581 µM), 0.518; with Dasatinib + Luminespib (first compound 0.5 µM), 0.507; with Dasatinib + Alpelisib (first compound 0.005 µM), 0.479; with Dasatinib + Alpelisib (first compound 0.01581 µM) it was 0.481. The relative viability with Dasatinib + Alpelisib (first compound 0.05 µM) is 0.436; with Dasatinib + Alpelisib (first compound 0.1581 µM) it was 0.473; in the assay with Dasatinib + Alpelisib (first compound 0.5 µM), 0.27; with Dasatinib + Phenformin (first compound 0.005 µM), 0.355; in the assay with Dasatinib + Phenformin (first compound 0.01581 µM), 0.331; with Dasatinib + Phenformin (first compound 0.05 µM) it was 0.291. The values for the relative viability with Dasatinib + Phenformin (first compound 0.1581 µM) and with Dasatinib + Phenformin (first compound 0.5 µM) were 0.224 and 0.173, respectively.

Regarding NCI-H2085, the relative viability with ALW-II-49-7 + Crizotinib (first compound 0.08 µM) turned out to be 0.762; with ALW-II-49-7 + Crizotinib (first compound 0.253 µM) it was 0.889; in the assay with ALW-II-49-7 + Crizotinib (first compound 0.8 µM) it was 0.898; with ALW-II-49-7 + Crizotinib (first compound 2.53 µM) it was 0.905; with ALW-II-49-7 + Crizotinib (first compound 8 µM), 0.938; with Dasatinib + Luminespib (first compound 0.005 µM) it was 0.411. For the same cell line, the relative viability with Dasatinib + Luminespib (first compound 0.01581 µM) is 0.307; in the assay with Dasatinib + Luminespib (first compound 0.05 µM) it was 0.459; with Dasatinib + Luminespib (first compound 0.1581 µM), 0.275; with Dasatinib + Luminespib (first compound 0.5 µM), 0.166; in the assay with Dasatinib + Alpelisib (first compound 0.005 µM), 0.874; in the assay with Dasatinib + Alpelisib (first compound 0.01581 µM), 0.794. Also, the relative viability with Dasatinib + Alpelisib (first compound 0.05 µM) amounted to 0.596; with Dasatinib + Alpelisib (first compound 0.1581 µM) it was 0.292; with Dasatinib + Alpelisib (first compound 0.5 µM), 0.2; with Dasatinib + Phenformin (first compound 0.005 µM), 0.636; in the assay with Dasatinib + Phenformin (first compound 0.01581 µM), 0.651; with Dasatinib + Phenformin (first compound 0.05 µM) it was 0.458. The relative viability in the assay with Dasatinib + Phenformin (first compound 0.1581 µM) worked out at 0.215; with Dasatinib + Phenformin (first compound 0.5 µM), 0.162.

In the case of NCI-H2087, the relative viability in the assay with ALW-II-49-7 + Crizotinib (first compound 0.08 µM) was 1.07; in the assay with ALW-II-49-7 + Crizotinib (first compound 0.253 µM), 0.843; with ALW-II-49-7 + Crizotinib (first compound 0.8 µM), 0.957; with ALW-II-49-7 + Crizotinib (first compound 2.53 µM) it was 0.758; with ALW-II-49-7 + Crizotinib (first compound 8 µM), 0.851; in the assay with Dasatinib + Luminespib (first compound 0.005 µM), 0.211. The relative viability with Dasatinib + Luminespib (first compound 0.01581 µM) worked out at 0.133; with Dasatinib + Luminespib (first compound 0.05 µM), 0.152; in the assay with Dasatinib + Luminespib (first compound 0.1581 µM) it was 0.148; with Dasatinib + Luminespib (first compound 0.5 µM), 0.149; with Dasatinib + Alpelisib (first compound 0.005 µM) it was 0.988; with Dasatinib + Alpelisib (first compound 0.01581 µM), 0.957. In addition, the relative viability in the assay with Dasatinib + Alpelisib (first compound 0.05 µM) stood at 1.34; with Dasatinib + Alpelisib (first compound 0.1581 µM), 1.01; with Dasatinib + Alpelisib (first compound 0.5 µM), 0.613; in the assay with Dasatinib + Phenformin (first compound 0.005 µM), 0.517; with Dasatinib + Phenformin (first compound 0.01581 µM) it was 0.461; with Dasatinib + Phenformin (first compound 0.05 µM) it was 0.562. Also, the relative viability with Dasatinib + Phenformin (first compound 0.1581 µM) worked out at 0.343; with Dasatinib + Phenformin (first compound 0.5 µM), 0.161.

On to NCI-H2126, for which the relative viability with ALW-II-49-7 + Crizotinib (first compound 0.08 µM) amounted to 0.857; with ALW-II-49-7 + Crizotinib (first compound 0.253 µM) it was 0.976; with ALW-II-49-7 + Crizotinib (first compound 0.8 µM), 1.06; with ALW-II-49-7 + Crizotinib (first compound 2.53 µM), 0.998; with ALW-II-49-7 + Crizotinib (first compound 8 µM) it was 0.987; in the assay with Dasatinib + Luminespib (first compound 0.005 µM), 0.837. Also, the relative viability with Dasatinib + Luminespib (first compound 0.01581 µM) is 0.792; with Dasatinib + Luminespib (first compound 0.05 µM), 0.835; in the assay with Dasatinib + Luminespib (first compound 0.1581 µM), 0.55; with Dasatinib + Luminespib (first compound 0.5 µM), 0.375; in the assay with Dasatinib + Alpelisib (first compound 0.005 µM), 0.761; in the assay with Dasatinib + Alpelisib (first compound 0.01581 µM) it was 0.643. In addition, the relative viability in the assay with Dasatinib + Alpelisib (first compound 0.05 µM) turned out to be 0.65; with Dasatinib + Alpelisib (first compound 0.1581 µM), 0.518; in the assay with Dasatinib + Alpelisib (first compound 0.5 µM), 0.339; with Dasatinib + Phenformin (first compound 0.005 µM), 0.56; with Dasatinib + Phenformin (first compound 0.01581 µM), 0.521; in the assay with Dasatinib + Phenformin (first compound 0.05 µM) it was 0.471. Also, the values for the relative viability with Dasatinib + Phenformin (first compound 0.1581 µM) and with Dasatinib + Phenformin (first compound 0.5 µM) were 0.39 and 0.285, respectively.

Consider NCI-H2170, for which the relative viability in the assay with ALW-II-49-7 + Crizotinib (first compound 0.08 µM) was 1.3; with ALW-II-49-7 + Crizotinib (first compound 0.253 µM), 1.12; with ALW-II-49-7 + Crizotinib (first compound 0.8 µM), 1.3; with ALW-II-49-7 + Crizotinib (first compound 2.53 µM), 1.21; with ALW-II-49-7 + Crizotinib (first compound 8 µM) it was 1.09; with Dasatinib + Luminespib (first compound 0.005 µM) it was 0.497. Besides, the relative viability was 0.482 with Dasatinib + Luminespib (first compound 0.01581 µM); 0.597 with Dasatinib + Luminespib (first compound 0.05 µM); 0.315 with Dasatinib + Luminespib (first compound 0.1581 µM); 0.273 with Dasatinib + Luminespib (first compound 0.5 µM); 0.738 in the assay with Dasatinib + Alpelisib (first compound 0.005 µM); 0.649 with Dasatinib + Alpelisib (first compound 0.01581 µM). Besides, the relative viability in the assay with Dasatinib + Alpelisib (first compound 0.05 µM) stood at 0.644; in the assay with Dasatinib + Alpelisib (first compound 0.1581 µM), 0.449; with Dasatinib + Alpelisib (first compound 0.5 µM) it was 0.382; with Dasatinib + Phenformin (first compound 0.005 µM), 0.426; with Dasatinib + Phenformin (first compound 0.01581 µM), 0.379; in the assay with Dasatinib + Phenformin (first compound 0.05 µM) it was 0.357. Besides, the relative viability in the assay with Dasatinib + Phenformin (first compound 0.1581 µM) turned out to be 0.294; with Dasatinib + Phenformin (first compound 0.5 µM) it was 0.177.

As to NCI-H2228, the relative viability with ALW-II-49-7 + Crizotinib (first compound 0.08 µM) is 0.541; with ALW-II-49-7 + Crizotinib (first compound 0.253 µM), 0.505; with ALW-II-49-7 + Crizotinib (first compound 0.8 µM), 0.423; in the assay with ALW-II-49-7 + Crizotinib (first compound 2.53 µM) it was 0.483; with ALW-II-49-7 + Crizotinib (first compound 8 µM), 0.27; with Dasatinib + Luminespib (first compound 0.005 µM) it was 0.158. The relative viability in the assay with Dasatinib + Luminespib (first compound 0.01581 µM) was determined as 0.095; in the assay with Dasatinib + Luminespib (first compound 0.05 µM), 0.145; with Dasatinib + Luminespib (first compound 0.1581 µM), 0.0907; with Dasatinib + Luminespib (first compound 0.5 µM), 0.101; with Dasatinib + Alpelisib (first compound 0.005 µM), 0.693; in the assay with Dasatinib + Alpelisib (first compound 0.01581 µM), 0.769. Moreover, the relative viability amounted to 0.581 with Dasatinib + Alpelisib (first compound 0.05 µM); 0.263 with Dasatinib + Alpelisib (first compound 0.1581 µM); 0.268 in the assay with Dasatinib + Alpelisib (first compound 0.5 µM); 0.354 in the assay with Dasatinib + Phenformin (first compound 0.005 µM); 0.298 in the assay with Dasatinib + Phenformin (first compound 0.01581 µM); 0.28 in the assay with Dasatinib + Phenformin (first compound 0.05 µM). The results for the relative viability with Dasatinib + Phenformin (first compound 0.1581 µM) and with Dasatinib + Phenformin (first compound 0.5 µM) were 0.242 and 0.218, respectively.

For the cell line NCI-H2347, the relative viability was 0.683 with ALW-II-49-7 + Crizotinib (first compound 0.08 µM); 0.69 with ALW-II-49-7 + Crizotinib (first compound 0.253 µM); 0.676 in the assay with ALW-II-49-7 + Crizotinib (first compound 0.8 µM); 0.671 with ALW-II-49-7 + Crizotinib (first compound 2.53 µM); 0.583 with ALW-II-49-7 + Crizotinib (first compound 8 µM); 0.404 in the assay with Dasatinib + Luminespib (first compound 0.005 µM). In addition, the relative viability came out at 0.359 with Dasatinib + Luminespib (first compound 0.01581 µM); 0.266 in the assay with Dasatinib + Luminespib (first compound 0.05 µM); 0.23 with Dasatinib + Luminespib (first compound 0.1581 µM); 0.276 with Dasatinib + Luminespib (first compound 0.5 µM); 0.845 with Dasatinib + Alpelisib (first compound 0.005 µM); 0.817 with Dasatinib + Alpelisib (first compound 0.01581 µM). The relative viability came to 0.783 in the assay with Dasatinib + Alpelisib (first compound 0.05 µM); 0.327 in the assay with Dasatinib + Alpelisib (first compound 0.1581 µM); 0.34 with Dasatinib + Alpelisib (first compound 0.5 µM); 0.278 with Dasatinib + Phenformin (first compound 0.005 µM); 0.209 in the assay with Dasatinib + Phenformin (first compound 0.01581 µM); 0.22 with Dasatinib + Phenformin (first compound 0.05 µM). The relative viability was determined as 0.178 with Dasatinib + Phenformin (first compound 0.1581 µM) and 0.212 with Dasatinib + Phenformin (first compound 0.5 µM).
